Legend:
[1] = Agonist activity at rat PGI2 receptor assessed as inhibition of ADP-induced platelet aggregation
[2] = Agonist activity at human PGI2 receptor assessed as inhibition of ADP-induced platelet aggregation

Which IC50 [1] does the source give for `O=C(O)COc1cccc(CC2CCCC=C2c2nc(-c3ccccc3)c(-c3ccccc3)o2)c1` [Sodium; {3-[(R)-2-(4,5-diphenyl-oxazol-2-yl)-cyclohex-2-enylmethyl]-phenoxy}-acetate] here?
The IC50 was 1200 nM.

What about the IC50 [2] of the same compound?
The IC50 was 60 nM.

Which IC50 [2] does the source give for `O=C(O)COc1cccc(Cc2ccccc2-c2nc(-c3ccccc3)c(-c3ccccc3)o2)c1` [sodium 2-(3-(2-(4,5-diphenyloxazol-2-yl)benzyl)phenoxy)acetate] here?
Its IC50 is 930 nM.

With `O=C(O)COc1cccc(CC2=C(c3nc(-c4ccccc4)c(-c4ccccc4)o3)CCCC2)c1` [sodium 2-(3-((2-(4,5-diphenyloxazol-2-yl)cyclohex-1-enyl)methyl)phenoxy)acetate] as the compound, how does the IC50 [2] read?
Its IC50 is 533 nM.

Which IC50 [2] does the source give for `O=C(O)COc1cccc(C[C@@H]2CCCC[C@H]2c2nc(-c3ccccc3)c(-c3ccccc3)o2)c1` [sodium 2-(3-(((1S,2R)-2-(4,5-diphenyloxazol-2-yl)cyclohexyl)methyl)phenoxy)acetate] here?
The IC50 was 114 nM.

Which IC50 [2] does the source give for `O=C(O)COc1cccc(C[C@@H]2CCC[C@H]2c2nc(-c3ccccc3)c(-c3ccccc3)o2)c1` [sodium 2-(3-(((1S,2R)-2-(4,5-diphenyloxazol-2-yl)cyclopentyl)methyl)phenoxy)acetate] here?
Its IC50 is 39 nM.

Which IC50 [2] does the source give for `O=C(O)COc1cccc(C[C@@H]2CCCC[C@@H]2c2nc(-c3ccccc3)c(-c3ccccc3)o2)c1` [sodium 2-(3-(((1S,2S)-2-(4,5-diphenyloxazol-2-yl)cyclohexyl)methyl)phenoxy)acetate] here?
Its IC50 is 115 nM.

Which IC50 [2] does the source give for `O=C(O)COc1cccc(C[C@@H]2CCC[C@@H]2c2nc(-c3ccccc3)c(-c3ccccc3)o2)c1` [sodium 2-(3-(((1S,2S)-2-(4,5-diphenyloxazol-2-yl)cyclopentyl)methyl)phenoxy)acetate] here?
Its IC50 is 53 nM.

With `O=C(O)COc1cccc(CN2CCC[C@@H]2c2nc(-c3ccccc3)c(-c3ccccc3)o2)c1` [sodium (R)-2-(3-((2-(4,5-diphenyloxazol-2-yl)pyrrolidin-1-yl)methyl)phenoxy)acetate] as the compound, how does the IC50 [1] read?
The IC50 was 700 nM.

And the IC50 [2]?
The IC50 was 48 nM.

For `O=C(O)COc1cccc(CN2CCC[C@H]2c2nc(-c3ccccc3)c(-c3ccccc3)o2)c1` [sodium (S)-2-(3-((2-(4,5-diphenyloxazol-2-yl)pyrrolidin-1-yl)methyl)phenoxy)acetate], which IC50 [1] is on record?
Its IC50 is greater than 10000 nM.

What about the IC50 [2] of the same compound?
Its IC50 is 58 nM.

— BindingDB's records for doi:10.1016/j.bmcl.2006.06.076 (Fujisawa Pharmaceutical, 2006)
